# Measured values: ChEMBL document CHEMBL4130359, “Indazole-based ligands for estrogen-related receptor α as potential anti-diabetic agents” (Eur J Med Chem, 2017)
# Experiments:
# Rattus norvegicus [1] = experiment: Toxicity in Zucker rat sub-chronic fa/fa prediabetic model assessed as serum cholesterol level at 3 mg/kg, po qd for 31 days measured on day 32 (reference value: 295 +/- 91 mg/dl); type: organism-based; conditions: in vivo, 744 h
# [2] = AUC (0 to 24 hrs) in Zucker rat sub-chronic fa/fa prediabetic model at 10 mg/kg, po qd for 26 days measured on day 26 post last dose; type: ADME, organism-based; set-up: dose 10 mg/kg, time < 24 hr, route oral; conditions: in vivo
# Rattus norvegicus [3] = experiment: Toxicity in […] model assessed as serum BUN level at 3 mg/kg, po qd for 31 days measured on day 32 (reference value: 28.3 +/- […]); type: organism-based; conditions: in vivo, 744 h
# Rattus norvegicus [4] = type: functional, Zucker
# Rattus norvegicus [5] = experiment: Effect on NDUFS2 gene expression in epididymal white adipose tissue of Zucker rat sub-chronic fa/fa prediabetic model at 10 mg/kg, po qd for 15 days by microarray analysis relative to control; type: functional
# Rattus norvegicus [6] = experiment: Toxicity in […] model assessed as serum cholesterol level at 10 mg/kg, po qd for 31 days measured on day 32 (reference value: 195 +/- 5.5 mg/dl); type: organism-based; conditions: in vivo, 744 h
# Rattus norvegicus [7] = experiment: Toxicity in Zucker rat sub-chronic fa/fa prediabetic model assessed as change in body weight at 10 mg/kg, po qd for 29 days measured on day 1 to 29 during compound dosing (reference value: 140 +/- 7 g); type: organism-based; conditions: in vivo, 696 h
# Rattus norvegicus [8] = experiment: Effect on NDUFB10 gene expression in epididymal white adipose tissue of Zucker rat sub-chronic fa/fa prediabetic model at 10 mg/kg, po qd for 15 days by microarray analysis relative to control; type: functional
# Rattus norvegicus [9] = experiment: Toxicity in Zucker rat sub-chronic fa/fa prediabetic model assessed as liver weight at 3 mg/kg, po qd for 31 days measured on day 32 (reference value: 28 +/- 1.6 g); type: organism-based; conditions: in vivo, 744 h
# [10] = Cmax in […] chronic ob/ob model at 3 mg/kg, po qd measured on day 1 post dose; type: ADME, organism-based; set-up: dose 3 mg/kg, route oral; conditions: in vivo
# Rattus norvegicus [11] = experiment: Effect on PIK3R6 gene expression in epididymal white adipose tissue of Zucker rat sub-chronic fa/fa prediabetic model at 10 mg/kg, po qd for 15 days by microarray analysis relative to control; type: functional
# Rattus norvegicus [12] = experiment: Toxicity in […] chronic ob/ob model assessed as serum creatinine level at 3 mg/kg, po qd for 31 days measured on day 32 (reference value: 0.55 +/- 0.018 mg/dl); type: organism-based; conditions: in vivo, 744 h
# Rattus norvegicus [13] = experiment: Toxicity in […] model assessed as serum ALT level at 10 mg/kg, po qd for 31 days measured on day 32 (reference value: 127 +/- 9 U/L); type: organism-based; conditions: in vivo, 744 h
# Rattus norvegicus [14] = experiment: Antidiabetic activity in Zucker rat sub-chronic fa/fa prediabetic model assessed as fasting blood insulin level at 1 mg/kg, po qd for 31 days measured on day 29 post dose (reference value: 8.5 +/- 1.4 ug/L); type: functional
# [15] = Tmax in ob/ob mouse at 18 mg/kg administered via oral gavage by LC-MS analysis; type: ADME, organism-based; conditions: in vivo
# [16] = AUC (0 to 24 hrs) in […] model at 10 mg/kg, po qd for 28 days measured on day 28 post last dose; type: ADME, organism-based; set-up: time < 24 hr, dose 10 mg/kg, route oral; conditions: in vivo
# [17] = Tmax in Sprague-Dawley rat at 10 mg/kg administered via oral gavage by LC-MS analysis; type: ADME, organism-based; conditions: in vivo
# [18] = Cmax in […] chronic ob/ob model at 50 mg/kg, po qd for 28 days measured on day 28 post last dose; type: ADME, organism-based; set-up: dose 50 mg/kg, route oral; conditions: in vivo
# Rattus norvegicus [19] = experiment: Toxicity in Zucker rat sub-chronic fa/fa prediabetic model assessed as insulin level per gram pancreas at 3 mg/kg, po qd for 31 days measured on day 32 (reference value: 55.2 +/- 5.5 ug); type: organism-based; conditions: in vivo, 744 h
# Rattus norvegicus [20] = type: functional, Zucker; remark: listed apart in the source
# [21] = Drug uptake in heart of Zucker rat sub-chronic fa/fa prediabetic model at 12.5 mg/kg, po qd for 11 days; type: ADME, organism-based; conditions: read-out: Drug uptake
# Rattus norvegicus [22] = experiment: Effect on HSP90B1 gene expression in epididymal white adipose tissue of Zucker rat sub-chronic fa/fa prediabetic model at 10 mg/kg, po qd for 15 days by microarray analysis relative to control; type: functional
# Rattus norvegicus [23] = experiment: Toxicity in Zucker rat sub-chronic fa/fa prediabetic model assessed as heart weight at 1 mg/kg, po qd for 31 days measured on day 32 (reference value: 1.19 +/- 0.04 g); type: organism-based; conditions: in vivo, 744 h
# [24] = target: Peroxisome proliferator-activated receptor delta (Homo sapiens, UniProt Q03181); experiment: Antagonist activity at recombinant GST-tagged human PPARdelta LBD assessed as inhibition of GW0742-induced fluorescein-labeled coactivator peptide recruitment preincubated with enzyme followed by coactivator addition by LanthaScreen TR-FRET assay
# Sequence of Peroxisome proliferator-activated receptor delta (Q03181 whole entry, the tested form may be a part): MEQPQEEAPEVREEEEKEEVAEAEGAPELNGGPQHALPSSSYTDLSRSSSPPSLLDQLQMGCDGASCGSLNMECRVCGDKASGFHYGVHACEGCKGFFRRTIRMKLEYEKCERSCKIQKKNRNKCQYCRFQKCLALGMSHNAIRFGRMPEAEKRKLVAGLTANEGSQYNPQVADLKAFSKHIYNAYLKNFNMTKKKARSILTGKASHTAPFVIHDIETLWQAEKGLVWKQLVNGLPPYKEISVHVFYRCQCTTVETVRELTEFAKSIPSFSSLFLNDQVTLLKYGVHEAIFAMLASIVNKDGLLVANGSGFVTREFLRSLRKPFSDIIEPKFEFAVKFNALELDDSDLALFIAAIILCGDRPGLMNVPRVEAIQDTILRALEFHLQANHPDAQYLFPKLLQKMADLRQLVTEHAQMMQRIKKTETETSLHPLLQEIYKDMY
# [25] = target: Retinoic acid receptor RXR-beta (Homo sapiens, UniProt P28702); experiment: Antagonist activity at recombinant GST-tagged human RXRbeta LBD assessed as inhibition of all-trans-retinoic acid-induced fluorescein-labeled coactivator peptide recruitment preincubated with enzyme followed by coactivator addition by LanthaScreen TR-FRET assay
# Sequence of Retinoic acid receptor RXR-beta (P28702 whole entry, the tested form may be a part): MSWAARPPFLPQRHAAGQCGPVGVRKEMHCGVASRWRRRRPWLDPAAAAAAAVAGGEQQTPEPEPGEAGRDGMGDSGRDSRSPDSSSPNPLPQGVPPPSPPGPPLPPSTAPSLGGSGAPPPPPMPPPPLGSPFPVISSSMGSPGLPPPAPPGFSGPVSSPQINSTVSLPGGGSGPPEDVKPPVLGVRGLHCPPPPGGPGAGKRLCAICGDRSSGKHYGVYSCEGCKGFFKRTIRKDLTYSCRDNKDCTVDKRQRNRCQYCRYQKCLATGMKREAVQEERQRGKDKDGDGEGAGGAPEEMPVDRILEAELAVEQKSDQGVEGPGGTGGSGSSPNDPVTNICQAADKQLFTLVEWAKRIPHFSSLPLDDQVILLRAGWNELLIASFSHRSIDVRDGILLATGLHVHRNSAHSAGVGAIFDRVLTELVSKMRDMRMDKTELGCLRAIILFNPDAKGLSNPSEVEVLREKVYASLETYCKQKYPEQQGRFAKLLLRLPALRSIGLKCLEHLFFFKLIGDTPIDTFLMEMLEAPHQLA
# Rattus norvegicus [26] = experiment: Effect on PTGS2 gene expression in epididymal white adipose tissue of Zucker rat sub-chronic fa/fa prediabetic model at 10 mg/kg, po qd for 15 days by microarray analysis relative to control; type: functional
# Rattus norvegicus [27] = experiment: Toxicity in Zucker rat sub-chronic fa/fa prediabetic model assessed as insulin level per gram pancreas at 50 mg/kg, po qd for 31 days measured on day 32 (reference value: 55.2 +/- 5.5 ug); type: organism-based; conditions: in vivo, 744 h
# Rattus norvegicus [28] = experiment: Effect on HMGCS2 gene expression in epididymal white adipose tissue of Zucker rat sub-chronic fa/fa prediabetic model at 10 mg/kg, po qd for 15 days by microarray analysis relative to control; type: functional
# Rattus norvegicus [29] = experiment: Effect on IL1RL1 gene expression in epididymal white adipose tissue of Zucker rat sub-chronic fa/fa prediabetic model at 10 mg/kg, po qd for 15 days by microarray analysis relative to control; type: functional
# Rattus norvegicus [30] = experiment: Effect on ADRA2C gene expression in epididymal white adipose tissue of Zucker rat sub-chronic fa/fa prediabetic model at 10 mg/kg, po qd for 15 days by microarray analysis relative to control; type: functional
# Rattus norvegicus [31] = experiment: Effect on PRKCD gene expression in epididymal white adipose tissue of Zucker rat sub-chronic fa/fa prediabetic model at 10 mg/kg, po qd for 15 days by microarray analysis relative to control; type: functional
# Rattus norvegicus [32] = experiment: Toxicity in Zucker rat sub-chronic fa/fa prediabetic model assessed as insulin level per gram pancreas at 1 mg/kg, po qd for 31 days measured on day 32 (reference value: 55.2 +/- 5.5 ug); type: organism-based; conditions: in vivo, 744 h
# Rattus norvegicus [33] = experiment: Effect on ALDH3B1 gene expression in epididymal white adipose tissue of Zucker rat sub-chronic fa/fa prediabetic model at 10 mg/kg, po qd for 15 days by microarray analysis relative to control; type: functional
# Rattus norvegicus [34] = experiment: Effect on ECSIT gene expression in epididymal white adipose tissue of Zucker rat sub-chronic fa/fa prediabetic model at 10 mg/kg, po qd for 15 days by microarray analysis relative to control; type: functional
compound,measurement,setting,value
CN1CC[C@@H](N2C(=O)S/C(=C\c3ccc4c(cnn4Cc4ccc(Cl)cc4C(F)(F)F)c3)C2=O)[C@H](F)C1,Activity,Rattus norvegicus [1],179 mg/dL
same,AUC at 24 h,[2],23900 ng·h/mL
same,Activity,Rattus norvegicus [3],25.5 mg/dL
same,Activity,Rattus norvegicus [4],27017 mg·min/dL
same,fold change (FC),Rattus norvegicus [5],1.224
same,Activity,Rattus norvegicus [6],164 mg/dL
same,Activity,Rattus norvegicus [7],150 g
same,fold change (FC),Rattus norvegicus [8],1.237
same,Activity,Rattus norvegicus [9],20.6 g
same,Cmax,[10],207 ng/mL
same,fold change (FC),Rattus norvegicus [11],-1.276
same,Activity,Rattus norvegicus [12],0.5 mg/dL
same,Activity,Rattus norvegicus [13],135 U/L
same,Activity,Rattus norvegicus [14],5 µg/L
same,Tmax,[15],2 h
same,AUC at 24 h,[16],5910 ng·h/mL
same,Tmax,[17],1.5 h
same,Cmax,[18],1680 ng/mL
same,Activity,Rattus norvegicus [19],90.7 µg
same,Activity,Rattus norvegicus [20],14.9%
same,concentration at 264 h,[21],1700 ng/g
same,fold change (FC),Rattus norvegicus [22],-1.258
same,Activity,Rattus norvegicus [23],1.16 g
same,IC50,[24],> 10 µM
same,IC50,[25],> 10 µM
same,fold change (FC),Rattus norvegicus [26],-1.389
same,Activity,Rattus norvegicus [27],94 µg
same,fold change (FC),Rattus norvegicus [28],-1.488
same,fold change (FC),Rattus norvegicus [29],-2.752
same,fold change (FC),Rattus norvegicus [30],-1.52
same,fold change (FC),Rattus norvegicus [31],-1.615
same,Activity,Rattus norvegicus [32],72.7 µg
same,fold change (FC),Rattus norvegicus [33],-1.554
same,fold change (FC),Rattus norvegicus [34],1.339
